The values below come from ChEMBL document CHEMBL3396981, “Synthesis and in vitro biological evaluation of 2-(phenylcarbamoyl)phenyl 4-substituted benzoates” (Bioorg Med Chem, 2015).

In brackets after ≈: the same amount, converted by molar mass.

In the first data set the test system is Mycobacterium tuberculosis. The data set can be described thus: Antimycobacterial activity against INH, RIF, rifabutin, streptomycin-resistant Mycobacterium tuberculosis 9449/2006 after 14 days by microdilution method. The data set is classed as functional. The conditions noted are these: 9449/2006, 336 h.
`Cc1ccc(C(=O)Oc2ccc(Br)cc2C(=O)Nc2ccc(C(F)(F)F)cc2)cc1` yielded an MIC of 1 µM (≈ 0.478 µg/mL). In other words, the single-digit micromolar range.
On the same count and under the same terms, next, `O=C(Oc1ccc(Br)cc1C(=O)Nc1ccc(C(F)(F)F)cc1)c1ccc(C(F)(F)F)cc1`: 1 µM (≈ 0.532 µg/mL).
The compound `O=C(Oc1ccc(Br)cc1C(=O)Nc1ccc(C(F)(F)F)cc1)c1ccc([N+](=O)[O-])cc1` registered an MIC of 0.5 µM (≈ 0.255 µg/mL).
On the same count and under the same terms, next, `O=C(Oc1ccc(Br)cc1C(=O)Nc1ccc(C(F)(F)F)cc1)c1ccc(Br)cc1`: 0.5 µM (≈ 0.272 µg/mL).

A further data set concerns Mycobacterium tuberculosis. The data set can be described thus: Antimycobacterial activity against INH, RIF, rifabutin, streptomycin, ethambutol, ofloxacin, gentamicin, amikacin-resistant Mycobacterium tuberculosis Praha 131 after 21 days by microdilution method. The conditions noted are these: Praha 131, 504 h. The class given is functional. In general terms: Dilution methods test growth across graded concentrations, often in twofold steps.
Compound `Cc1ccc(C(=O)Oc2ccc(Br)cc2C(=O)Nc2ccc(C(F)(F)F)cc2)cc1` gave an MIC of 1 µM (≈ 0.478 µg/mL). This lies in the single-digit micromolar range.
In turn, `O=C(Oc1ccc(Br)cc1C(=O)Nc1ccc(C(F)(F)F)cc1)c1ccc(C(F)(F)F)cc1` gave an MIC of 1 µM (≈ 0.532 µg/mL). That is a single-digit micromolar value.
The same measure, in the same setting: next, `O=C(Oc1ccc(Br)cc1C(=O)Nc1ccc(C(F)(F)F)cc1)c1ccc([N+](=O)[O-])cc1`: 0.5 µM (≈ 0.255 µg/mL); `O=C(Oc1ccc(Br)cc1C(=O)Nc1ccc(C(F)(F)F)cc1)c1ccc(Br)cc1`: 1 µM (≈ 0.543 µg/mL).

In a further data set the test system is Mycobacterium tuberculosis. Put plainly: Antimycobacterial activity against INH, RIF, rifabutin, streptomycin, ethambutol, ofloxacin-resistant Mycobacterium tuberculosis 234/2005 after 21 days by microdilution method. The class given is functional. The conditions noted are these: 234/2005, 504 h.
`Cc1ccc(C(=O)Oc2ccc(Br)cc2C(=O)Nc2ccc(C(F)(F)F)cc2)cc1` showed an MIC of 2 µM (≈ 0.957 µg/mL).
Same read-out and setting: next, `O=C(Oc1ccc(Br)cc1C(=O)Nc1ccc(C(F)(F)F)cc1)c1ccc(C(F)(F)F)cc1`: 1 µM (≈ 0.532 µg/mL).

System in the next data set: not listed separately
Put plainly: Selectivity index, ratio of IC50 for human HepG2 cells to MIC for multidrug-resistant Mycobacterium tuberculosis. To be noted: read-out: Selectivity Index. The data set is classed as toxicity, cell-based.
Turning to `Cc1ccc(C(=O)Oc2ccc(Br)cc2C(=O)Nc2ccc(C(F)(F)F)cc2)cc1`, the selectivity ratio is above 25.
Consider `O=C(Oc1ccc(Br)cc1C(=O)Nc1ccc(C(F)(F)F)cc1)c1ccc([N+](=O)[O-])cc1`, for which the selectivity ratio was above 100.
With `O=C(Oc1ccc(Br)cc1C(=O)Nc1ccc(C(F)(F)F)cc1)c1ccc(Br)cc1`, the selectivity ratio was above 50.

Another data set concerns Mycobacterium tuberculosis. The data set can be described thus: Antimycobacterial activity against INH, RIF, rifabutin, streptomycin, ethambutol, ofloxacin, clofazimine-resistant Mycobacterium tuberculosis Praha 4 after 21 days by microdilution method. The data set is classed as functional. The conditions noted are these: Praha 4, 504 h.
Turning to `Cc1ccc(C(=O)Oc2ccc(Br)cc2C(=O)Nc2ccc(C(F)(F)F)cc2)cc1`, inhibition of growth (MIC) required 1 µM (≈ 0.478 µg/mL).
The same measure, in the same setting: to `O=C(Oc1ccc(Br)cc1C(=O)Nc1ccc(C(F)(F)F)cc1)c1ccc([N+](=O)[O-])cc1` belongs 0.5 µM (≈ 0.255 µg/mL); to `O=C(Oc1ccc(Br)cc1C(=O)Nc1ccc(C(F)(F)F)cc1)c1ccc(Br)cc1`, 0.5 µM (≈ 0.272 µg/mL).

The test system of a further data set is Mycobacterium tuberculosis. Put plainly: Antimycobacterial activity against INH, RIF, rifabutin, streptomycin, ethambutol, clofazimine-resistant Mycobacterium tuberculosis Praha 1 after 21 days by microdilution method. The class given is functional. The conditions noted are these: Praha 1, 504 h.
In turn, `Cc1ccc(C(=O)Oc2ccc(Br)cc2C(=O)Nc2ccc(C(F)(F)F)cc2)cc1` displayed an MIC of 1 µM (≈ 0.478 µg/mL).
The same measure, in the same setting: next, `O=C(Oc1ccc(Br)cc1C(=O)Nc1ccc(C(F)(F)F)cc1)c1ccc(C(F)(F)F)cc1`: 1 µM (≈ 0.532 µg/mL).

For another data set, the system named is Mycobacterium tuberculosis. The data set can be described thus: Antimycobacterial activity against INH, RIF, rifabutin, streptomycin, ethambutol, ofloxacin-resistant Mycobacterium tuberculosis 7357/1998 after 21 days by microdilution method. The data set is classed as functional. The conditions noted are these: 7357/1998, 504 h.
The compound `Cc1ccc(C(=O)Oc2ccc(Br)cc2C(=O)Nc2ccc(C(F)(F)F)cc2)cc1` registered an MIC of 1 µM (≈ 0.478 µg/mL).
Same read-out and setting: next, `O=C(Oc1ccc(Br)cc1C(=O)Nc1ccc(C(F)(F)F)cc1)c1ccc(C(F)(F)F)cc1`: 1 µM (≈ 0.532 µg/mL); `O=C(Oc1ccc(Br)cc1C(=O)Nc1ccc(C(F)(F)F)cc1)c1ccc([N+](=O)[O-])cc1`: 0.5 µM (≈ 0.255 µg/mL); `O=C(Oc1ccc(Br)cc1C(=O)Nc1ccc(C(F)(F)F)cc1)c1ccc(Br)cc1`: 1 µM (≈ 0.543 µg/mL).

A further data set relates to Mycobacterium tuberculosis. Put plainly: Antimycobacterial activity against INH, RIF, rifabutin, streptomycin-resistant Mycobacterium tuberculosis 9449/2006 after 21 days by microdilution method. The class given is functional. To be noted: 9449/2006, 504 h.
In turn, `Cc1ccc(C(=O)Oc2ccc(Br)cc2C(=O)Nc2ccc(C(F)(F)F)cc2)cc1` registered an MIC of 1 µM (≈ 0.478 µg/mL).
On the same count and under the same terms, next, `O=C(Oc1ccc(Br)cc1C(=O)Nc1ccc(C(F)(F)F)cc1)c1ccc(C(F)(F)F)cc1`: 1 µM (≈ 0.532 µg/mL); `O=C(Oc1ccc(Br)cc1C(=O)Nc1ccc(C(F)(F)F)cc1)c1ccc([N+](=O)[O-])cc1`: 0.5 µM (≈ 0.255 µg/mL); `O=C(Oc1ccc(Br)cc1C(=O)Nc1ccc(C(F)(F)F)cc1)c1ccc(Br)cc1`: 1 µM (≈ 0.543 µg/mL).

In the next data set the test system is Mycobacterium tuberculosis. The data set can be described thus: Antimycobacterial activity against INH, RIF, rifabutin, streptomycin, ethambutol, ofloxacin, clofazimine-resistant Mycobacterium tuberculosis Praha 4 after 14 days by microdilution method. The class given is functional. The conditions noted are these: Praha 4, 336 h.
`Cc1ccc(C(=O)Oc2ccc(Br)cc2C(=O)Nc2ccc(C(F)(F)F)cc2)cc1` registered an MIC of 1 µM (≈ 0.478 µg/mL).
The same measure, in the same setting: to `O=C(Oc1ccc(Br)cc1C(=O)Nc1ccc(C(F)(F)F)cc1)c1ccc([N+](=O)[O-])cc1` belongs 0.5 µM (≈ 0.255 µg/mL); to `O=C(Oc1ccc(Br)cc1C(=O)Nc1ccc(C(F)(F)F)cc1)c1ccc(Br)cc1`, 0.25 µM (≈ 0.136 µg/mL).

The subject of the next data set is Mycobacterium tuberculosis. Put plainly: Antimycobacterial activity against INH, RIF, rifabutin, streptomycin, ethambutol, ofloxacin, gentamicin, amikacin-resistant Mycobacterium tuberculosis Praha 131 after 14 days by microdilution method. The conditions noted are these: Praha 131, 336 h. The data set is classed as functional.
`Cc1ccc(C(=O)Oc2ccc(Br)cc2C(=O)Nc2ccc(C(F)(F)F)cc2)cc1` showed an MIC of 1 µM (≈ 0.478 µg/mL). In other words, the single-digit micromolar range.
Same read-out and setting: next, `O=C(Oc1ccc(Br)cc1C(=O)Nc1ccc(C(F)(F)F)cc1)c1ccc(C(F)(F)F)cc1`: 0.5 µM (≈ 0.266 µg/mL).
In the case of `O=C(Oc1ccc(Br)cc1C(=O)Nc1ccc(C(F)(F)F)cc1)c1ccc([N+](=O)[O-])cc1`, 0.25 µM (≈ 0.127 µg/mL) was the least that counted as inhibitory (MIC).
`O=C(Oc1ccc(Br)cc1C(=O)Nc1ccc(C(F)(F)F)cc1)c1ccc(Br)cc1` registered an MIC of 0.5 µM (≈ 0.272 µg/mL).

The test system of another data set is Mycobacterium tuberculosis. The data set can be described thus: Antimycobacterial activity against INH, RIF, rifabutin, streptomycin, ethambutol, ofloxacin-resistant Mycobacterium tuberculosis 234/2005 after 14 days by microdilution method. The class given is functional. To be noted: 234/2005, 336 h.
The compound `Cc1ccc(C(=O)Oc2ccc(Br)cc2C(=O)Nc2ccc(C(F)(F)F)cc2)cc1` showed an MIC of 2 µM (≈ 0.957 µg/mL).
Still for that read-out and setting: next, `O=C(Oc1ccc(Br)cc1C(=O)Nc1ccc(C(F)(F)F)cc1)c1ccc(C(F)(F)F)cc1`: 0.5 µM (≈ 0.266 µg/mL).

A further data set concerns Mycobacterium tuberculosis. The data set can be described thus: Antimycobacterial activity against INH, RIF, rifabutin, streptomycin, ethambutol, clofazimine-resistant Mycobacterium tuberculosis Praha 1 after 14 days by microdilution method. To be noted: Praha 1, 336 h. The data set is classed as functional.
As for `Cc1ccc(C(=O)Oc2ccc(Br)cc2C(=O)Nc2ccc(C(F)(F)F)cc2)cc1`, the MIC turned out to be 1 µM (≈ 0.478 µg/mL).
On the same count and under the same terms, to `O=C(Oc1ccc(Br)cc1C(=O)Nc1ccc(C(F)(F)F)cc1)c1ccc(C(F)(F)F)cc1` belongs 0.5 µM (≈ 0.266 µg/mL).

The subject of the next data set is Mycobacterium tuberculosis. Put plainly: Antimycobacterial activity against INH, RIF, rifabutin, streptomycin, ethambutol, ofloxacin-resistant Mycobacterium tuberculosis 7357/1998 after 14 days by microdilution method. The class given is functional. To be noted: 7357/1998, 336 h.
`Cc1ccc(C(=O)Oc2ccc(Br)cc2C(=O)Nc2ccc(C(F)(F)F)cc2)cc1` had a minimal inhibitory concentration (MIC) of 1 µM (≈ 0.478 µg/mL).
On to `O=C(Oc1ccc(Br)cc1C(=O)Nc1ccc(C(F)(F)F)cc1)c1ccc(C(F)(F)F)cc1`, for which the MIC turned out to be 1 µM (≈ 0.532 µg/mL).
In turn, `O=C(Oc1ccc(Br)cc1C(=O)Nc1ccc(C(F)(F)F)cc1)c1ccc([N+](=O)[O-])cc1` gave an MIC of 0.5 µM (≈ 0.255 µg/mL).
Turning to `O=C(Oc1ccc(Br)cc1C(=O)Nc1ccc(C(F)(F)F)cc1)c1ccc(Br)cc1`, the MIC came out at 0.5 µM (≈ 0.272 µg/mL).

In general, MIC refers to the least concentration at which growth counts as inhibited.
